{"source": "patent US12016834B2", "about": "“Small molecule inhibitors of SLC25A1” (GEORGETOWN UNIVERSITY, priority 2017, dated 2024)", "format_in_all_cases": "cell-based, human", "key": {"[1]": {"test_system": "phosphofructokinase (PFK)", "test": "Phosphofructokinase activity in cells", "conditions": "3 hours", "method": "(§1) Cells, reagents, antibodies, primers. The H1299 cell lines and other cell lines employed in this study were obtained from ATCC or from the tissue culture core facility at LCCC. Cells were grown in Dulbecco's Modified Eagle's Medium (DMEM, 25 mM glucose, with glutamine and pyruvate from Invitrogen; Carlsbad, CA) and supplemented with 10% fetal calf serum (FCS). […] The SLC25A1 specific shRNA vectors were purchased from Sigma. The vector expressing human SLC25A1 untagged or Flag-Myc epitope tagged were from Origene; Rockville, MD (#SC120727 and RC200657, respectively). The anti-SLC25A1 antibody used in immuno-blot was from Santa Cruz Biotech, #sc-86392 employed at 1:1000 dilution. Citrate, lactate, and PFK measurements were performed by using commercially available kits (Biovision (Milpitas, CA))."}, "H1299 cells [2]": {"test_system": "H1299 cells", "test": "Proliferation / viability in monolayer (2D) cultures", "method": "(§2) Cellular proliferation and cytotoxicity assays. The proliferative capacity of cells was assessed by plating cells in triplicate at a concentration of 2,000 to 10,000 cells/well in 96 well plates in triplicate, with or without drug treatment for 48 hours. The cells were then washed with 1×PBS and fixed with cold 100% methanol at−20° C. for 20 minutes. Methanol was washed off and the cells were stained with 0.5% crystal violet dissolved in 25% methanol and water at 4° C. for 20 minutes. The staining was washed off using deionized (DI) water and the plate was dried overnight. On the second day, 100 mM sodium citrate in 50% ethanol and 50% water was added to the wells and absorbance at 550 nm was measured and corrected with readings at 405 nm. In other experiments, cell viability was assessed by trypan blue exclusion and visual count of the live cells was performed."}, "H1299 cells [3]": {"test_system": "H1299 cells", "test": "Glycolysis: ECAR (Seahorse) and lactic acid levels", "method": "as §1\n(§3) Seahorse extracellular flux analyzer experiments. Cells derived from spheres or monolayer cultures were dissociated and plated overnight at 12,000 cells/well in DMEM with 10% FBS, 5 mM glucose, 1 mM pyruvate, 2 mM glutamine.\n(§4) For the mitochondrial stress test, the media was replaced with DMEM without FBS or bicarbonate, containing 5 mM glucose, 1 mM pyruvate, 2 mM glutamine and placed in a CO2 free incubator at 37° C. for 1 hour, and then transferred to the Xf96 extracellular flux analyzer (Agilent; Santa Clara, CA). The program consisted of 3 measurements of OCR/ECAR before the injection of each drug: oligomycin (0.5 μM final concentration), FCCP (2 μM) and rotenone/antimycin (0.5 μM of each). For the glycolysis stress test, cells were plated overnight as above, and the media was washed twice the following day with DMEM without FBS, bicarbonate, glucose, glutamine or pyruvate, and incubated in this media in a CO2 free incubator with/without drug treatments at 37° C. for 4 hours. There were 3 measurements of OCR/ECAR before each injection: glucose (10 mM final concentration), oligomycin (0.5 […] (50 mM). For the analysis of glutamine oxidation, the protocol was the same as the glucose stress test, but with glutamine being the only compound injected (final concentration 4 mM) and OCR/ECAR measured for 60 minutes. When spheres were analyzed, they were dissociated with StemPro® Accutase® (Thermo Scientific; Waltham, MA) and plated under the same conditions as above as for the monolayers the day before the assay (H1299 spheres), or in stem cell media (See Stem Cell Media) with the wells coated in 15 μL of 2% geltrex diluted in DMEM:F12 (Thermo Scientific). The results were normalized to cell number."}, "MP3 cells": {"test_system": "MP3 cells", "test": "Viability (Crystal Violet) and drug interaction (R index)", "conditions": "CTPI-2 with either cisplatin or AZD9291, 5 days", "method": "as §2, with “The proliferative capacity of cells was assessed by plating cells in triplicate at a concentration of 2,000 to 10,000 cells/well in 96 well plates in triplicate, with or without drug treatment for 48 hours.” left out\n(§5) Statistical methods for drug interactions. […] Sexp/Sobs=1.0 denotes an additive interaction, while >1.0 denotes a synergistic interaction. R index values approaching 2.0 are indicative of strong synergy."}, "MP2 cells": {"test_system": "MP2 cells", "test": "Viability (Crystal Violet) and drug interaction (R index)", "conditions": "CTPI-2 with either cisplatin or AZD9291, 5 days", "method": "as §2, with “The proliferative capacity of cells was assessed by plating cells in triplicate at a concentration of 2,000 to 10,000 cells/well in 96 well plates in triplicate, with or without drug treatment for 48 hours.” left out\nas §5"}, "MP1 cells [4]": {"test_system": "MP1 cells", "test": "Viability (Crystal Violet) and drug interaction (R index)", "method": "as §2, with “The proliferative capacity of cells was assessed by plating cells in triplicate at a concentration of 2,000 to 10,000 cells/well in 96 well plates in triplicate, with or without drug treatment for 48 hours.” left out\nas §5"}, "H1299 cells [5]": {"test_system": "H1299 cells", "test": "Seahorse oxygen consumption rate (mitochondrial stress test)", "method": "as §3\nas §4, with “For the glycolysis stress test, cells were plated overnight as above, and the media was washed twice the following day with DMEM without FBS, bicarbonate, glucose, glutamine or pyruvate, and incubated in this media in a CO2 free incubator with/without drug treatments at 37° C. for 4 hours.” left out, “The results were normalized to cell number.” left out"}, "H1299 spheres": {"test_system": "H1299 spheres", "test": "Cell cycle analysis of spheres", "conditions": "after three days of treatment", "method": "(§6) Flow cytometry. Tumor cells were trypsinized and washed in 1×PBS. The cells were then stained with the antibodies of choice: CD166-PE (Biolegend), CD133-647 (Biolegend), or CD44 (Biolegend), in 1% BAS-PBS. The cell cycles of monolayers or spheres of the cells were analyzed by fixing the cells in cold 75% ethanol. The annexin V (Biolegend) and propidium iodide (Biolegend) experiments were carried out."}, "MP1 cells [6]": {"test_system": "MP1 cells", "test": "Apoptosis by annexin V and PI flow cytometry", "method": "as §6"}, "MP1 tumor spheres": {"test_system": "MP1 tumor spheres", "test": "Spheroid-based matrix invasion assay (invadopodia)", "conditions": "spheres embedded in geltrex", "method": "Invadopodia measurements. After embedding the spheres in a 3D matrix, their extent of invasion was monitored over […]. Using an inverted microscope set at a magnification of 20×, images of the spheres were obtained at 0 hours, 24 hours, and 48 hours after plating. Analysis for invasion was done using ‘imageJ’ by NIH. The area of invasion was measured by sketching an outline around the spheres using the freehand draw tool. The ‘measure’ tool in ‘Analyze’ on the top menu calculated the area for the selected spheroid. The areas of just the spheres (inner area) and the area of the spheres along with its invadopodia (outer area) were measured. The percent difference between the outer area and the inner area was graphed to understand the extent of invasion in each cell type at different time points. The obtained areas for all the spheres were graphed. Spheres of similar areas were selected, whereas the outliers were eliminated so as to compare the spheres of similar volumes."}}, "data": [{"smiles": "O=C(O)c1ccccc1NS(=O)(=O)c1ccc(Cl)c([N+](=O)[O-])c1", "note": "[CTPI-2]", "values": [{"measurement": "PFK activity", "setting": "[1]; monolayer differentiated cultures", "result": "enhanced"}, {"measurement": "PFK activity", "setting": "[1]; spheres", "result": "unchanged"}, {"measurement": "proliferation of cells expressing the SLC25A1-shRNA", "setting": "H1299 cells [2]; SLC25A1-shRNA lentivirus, live cells counted after one week", "result": "failed to inhibit proliferation"}, {"measurement": "anti-proliferative activity, ranges of concentrations", "setting": "H1299 cells [2]; monolayer or methylcellulose single cells (FIG. 3J)", "result": "anti-proliferative activity at comparable ranges of concentrations"}, {"measurement": "lactic acid levels", "setting": "H1299 cells [3]; monolayer cultures", "result": "increase in lactic acid levels"}, {"measurement": "ECAR rates", "setting": "H1299 cells [3]; monolayer cultures, after 10 mM glucose injection", "result": "starkly induced"}, {"measurement": "ECAR and lactic acid levels", "setting": "H1299 cells [3]; spheres", "result": "remained unchanged or were slightly diminished"}, {"measurement": "re-sensitization, type of drug interaction (R index)", "setting": "MP3 cells", "result": "starkly synergistic"}, {"measurement": "re-sensitization, type of drug interaction (R index)", "setting": "MP2 cells", "result": "starkly synergistic"}, {"measurement": "re-sensitization, type of drug interaction (R index)", "setting": "MP1 cells [4]; CTPI-2 with either cisplatin or AZD9291, 5 days", "result": "starkly synergistic"}, {"measurement": "sensitivity of a single cisplatin-resistant clone", "setting": "MP1 cells [4]; co-treatment with cisplatin (FIG. 15D)", "result": "re-sensitized to cisplatin"}, {"measurement": "respiratory activity of cells expressing the SLC25A1 shRNA", "setting": "H1299 cells [5]; SLC25A1 shRNA cells", "result": "failed to affect the respiratory activity"}, {"measurement": "respiratory capacity (OCR)", "setting": "H1299 cells [5]; treated for three hours, spheres and monolayers", "result": "inhibited respiratory capacity in a dose-dependent fashion"}, {"measurement": "cell cycle effect in spheres", "setting": "H1299 spheres", "result": "modestly cytostatic"}, {"measurement": "apoptosis", "setting": "MP1 cells [6]; co-treated with cisplatin and CTPI-2", "result": "strong pro-apoptotic effect"}, {"measurement": "apoptosis", "setting": "MP1 cells [6]; drug alone", "result": "did not induce apoptosis"}, {"measurement": "matrix invasion", "setting": "MP1 tumor spheres", "result": "completely reverted this phenotype"}]}]}
